Source: patent publication US20080176913A1, “TRANSDERMAL COMPOSITIONS OF PRAMIPEXOLE HAVING ENHANCED PERMEATION PROPERTIES” (priority 2006, published 2008)
Counter-ions that a name gives are not always drawn. Like-named read-outs stand apart in the source and are kept apart here.

Experiments:
[1] = oral administration, daily dose of about 1.5 to 4.5 mg; cited from earlier work

ionization (at pH of about 8.0): about 97% | ionization (at pH of about 10.5): about 33%
Compound: CCCN[C@H]1CCc2nc(N)sc2C1 [pramipexole, (S)-2-amino-4,5,6,7-tetrahydro-6-(propylamino)benzothiazole dihydrochloride monohydrate]
bioavailability [1]: 90%
